Common to all, as to experiment: DTP human tumour cell line panel, 48 h
For assay [1], the system named is IGROV1 ovarian.
The test system of assay [2] is MDA-MB-231 breast.
In assay [3] the test system is OVCAR-3 ovarian.
Assay [4] relates to OVCAR-8 ovarian.
The test system of assay [5] is RXF 393 renal.
Assay [6] deals with SK-MEL-2 melanoma.
The subject of assay [7] is SNB-75 CNS.
Assay [8] relates to U251 CNS.
The test system of assay [9] is HL-60(TB) leukemia.
Assay [10] relates to LOX IMVI melanoma.
The test system of assay [11] is SF-539 CNS.
Assay [12] relates to A498 renal.

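Method: 48-hour compound exposure of cells in 96-well plates, five concentrations, linear interpolation of endpoints. GI50 is the concentration that inhibits growth by half. TGI denotes the concentration required for complete inhibition of growth.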 Where a SMILES comes first, the peptide text is derived from it. [ ]: non-standard residue; d: D form. The star is where a group is joined. Cbz = O=C(OCc1ccccc1)*; Aib = CC(C)(N)C(=O)O A value given as a limit tells only on which side of the number the result lay.

Turning to `O=C(NNc1nc(-c2ccccc2)cs1)Nc1ccccc1`, the TGI is over 100 µM in assay [1]; 54.4 µM in [2]; 50.2 µM in assay [3]; 46.8 µM in [4]; 36.8 µM in assay [5]; 44.6 µM in assay [6]. Further, the TGI is 69.3 µM in [7] and 58.1 µM in [8].
With `Cn1c(-c2c(C3=CC(=O)N(c4ccccc4)C3=O)c3ccccc3n2C)cc2ccccc21`, the TGI in assay [9], in [1], in assay [10], in assay [2], in assay [3] and in assay [4] was over 100 µM in each case. Moreover, the TGI in assay [5], in [11], in assay [6], in [7] and in assay [8] was over 100 µM each time.
As for `Cc1ccc2c(=O)cc(-c3cccc(F)c3)[nH]c2n1`, the TGI is 0.0621 µM in [9]; over 100 µM in assay [1]; over 100 µM in [10]; 1.11 µM in assay [2]; 0.0415 µM in assay [3]; 1.87 µM in assay [4]. The TGI in assay [5] is over 100 µM; in [11] it was 0.78 µM; in assay [8] it was over 74.7 µM.
As to `CCOC(=O)C1CCCN1C(=O)c1ccccc1Cl` (centres undefined), the TGI in assay [12], in assay [9], in assay [1], in assay [10], in [2] and in assay [3] was over 100 µM throughout. Further, the TGI in assay [4], in assay [5], in assay [11], in assay [7] and in [8] was over 100 µM in each case.
Take `Nc1ncc2c(n1)-c1ccccc1OC2`: the TGI in assay [12], in assay [9], in assay [1], in assay [10], in assay [3] and in assay [4] was over 100 µM each time. Also, the TGI in [5] is over 100 µM; in assay [11], over 100 µM; in [6], over 100 µM; in [7] it was 94.4 µM; in assay [8] it was over 100 µM.
In the case of `CC(C)(NC(=O)C(C)(C)NC(=O)OCc1ccccc1)C(=O)O` (Cbz-[Aib]-[Aib]-OH), the concentration for total growth inhibition (TGI) in [12], in assay [1], in assay [10], in [2], in assay [3] and in assay [4] was over 100 µM throughout. Also, the TGI in [11], in assay [6], in [7] and in assay [8] was over 100 µM each time.
On to `COc1ccc(C2NC(N)=C(C#N)C3=C2C(C)CCC3)cc1OC` (centres undefined), for which the TGI in assay [9], in assay [1], in [10], in assay [2], in assay [3] and in assay [4] was over 100 µM in each case. Besides, the total growth inhibition concentration (TGI) in assay [5] is over 100 µM; in assay [11] it was over 100 µM; in assay [6], over 100 µM; in assay [7] it was 16.7 µM; in [8], over 100 µM.
For `N=C(N)c1ccc(-c2ccc(-c3ccc(Cl)cc3Cl)s2)nc1`, the GI50 in assay [2] is 1680 nM; in assay [3], 1830 nM; in assay [4], 2510 nM; in assay [5] it was 1670 nM; in assay [11], 1660 nM; in assay [6] it was 2790 nM. In addition, the GI50 in [7] was 1430 nM. Moreover, the concentration for total growth inhibition (TGI) in assay [2] was 3.26 µM; in assay [3] it was 3.35 µM; in [4], 6.41 µM; in assay [5], 3.06 µM; in assay [11] it was 3.06 µM; in [6], 7.32 µM. The same compound returned a TGI in assay [7] of 2.83 µM.
For `CSc1nc(-c2ccccc2)nc(=[N+]2CCOCC2)s1`, the concentration for total growth inhibition (TGI) in [12], in assay [9], in assay [1], in assay [10], in [3] and in assay [4] was over 100 µM in each case. Also, the TGI in assay [5], in assay [11], in assay [6], in assay [7] and in assay [8] was over 100 µM in each case.
Turning to `Cc1ccc(S(=O)(=O)NC(=O)NC(CC(=O)O)C(=O)O)cc1` (centres undefined), the TGI in [9], in [1], in [10], in [2], in assay [4] and in assay [5] was over 100 µM in each case. Also, the total growth inhibition concentration (TGI) in assay [11], in assay [6], in [7] and in assay [8] was over 100 µM each time.
Take `Cc1cc(S(=O)(=O)Nc2n[nH]c(Nc3ccccc3)n2)c(SSc2cc(Cl)c(C)cc2S(=O)(=O)Nc2n[nH]c(Nc3ccccc3)n2)cc1Cl`: the TGI in [9] was 61.1 µM; in assay [1] it was over 100 µM; in [10] it was over 100 µM; in assay [2], over 100 µM; in assay [3] it was over 100 µM; in [4], over 100 µM. For the same compound, the total growth inhibition concentration (TGI) in [5] was over 10 µM; in assay [11], over 10 µM; in assay [7] it was over 100 µM; in [8], over 100 µM.
On to `Cc1cc(O)c(C(C)C)cc1C(=S)Nc1ccc(Cl)cc1`, for which the TGI in assay [12] turned out to be 29.7 µM; in assay [9], 24.9 µM; in [1], 15.9 µM; in assay [10], 24 µM; in assay [3] it was 27.9 µM; in assay [4] it was 24.2 µM. Besides, the TGI in assay [11] came out at 29.6 µM; in assay [6], 27.8 µM; in assay [8], 27.8 µM.
For the compound `CCc1n[nH]c(=O)[nH]1`, the TGI in [1], in assay [10], in assay [2], in [3], in assay [4] and in assay [5] was over 100 µM each time. Besides, the TGI in assay [11], in assay [6] and in assay [7] was over 100 µM in each case.

These data come from PubChem BioAssay (NCI).
